# Test results: PubChem BioAssay (NCI)
#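 GI50: concentration for 50% inhibition of growth. At the TGI there is no net growth.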
# How the values were obtained:
# Test in all cases: inhibition of tumour cell growth, NCI panel, 384-well format
# 786-0 renal = tested on: 786-0 renal
# A549 NSCLC = tested on: A549 NSCLC
# ACHN renal = tested on: ACHN renal
# BT-549 breast = tested on: BT-549 breast
# CAKI-1 renal = tested on: CAKI-1 renal
# CCRF-CEM leukemia = tested on: CCRF-CEM leukemia
# COLO 205 colon = tested on: COLO 205 colon
# DU-145 prostate = tested on: DU-145 prostate
# EKVX NSCLC = tested on: EKVX NSCLC
# HCT-15 colon = tested on: HCT-15 colon
# HL-60(TB) leukemia = tested on: HL-60(TB) leukemia
# HOP-62 NSCLC = tested on: HOP-62 NSCLC
# HOP-92 NSCLC = tested on: HOP-92 NSCLC
# HS 578T breast = tested on: HS 578T breast
# HT29 colon = tested on: HT29 colon
# IGROV1 ovarian = tested on: IGROV1 ovarian
# KM12 colon = tested on: KM12 colon
# M14 melanoma = tested on: M14 melanoma
# MALME-3M melanoma = tested on: MALME-3M melanoma
# MCF7 breast = tested on: MCF7 breast
# MDA-MB-231 breast = tested on: MDA-MB-231 breast
# MDA-MB-435 melanoma = tested on: MDA-MB-435 melanoma
# MDA-MB-468 breast = tested on: MDA-MB-468 breast
# MOLT-4 leukemia = tested on: MOLT-4 leukemia
# NCI-H226 lung = tested on: NCI-H226 lung
# NCI-H23 lung = tested on: NCI-H23 lung
# NCI-H322M lung = tested on: NCI-H322M lung
# NCI-H460 NSCLC = tested on: NCI-H460 NSCLC
# NCI-H522 lung = tested on: NCI-H522 lung
# NCI/ADR-RES ovarian = tested on: NCI/ADR-RES ovarian
# OVCAR-3 ovarian = tested on: OVCAR-3 ovarian
# OVCAR-4 ovarian = tested on: OVCAR-4 ovarian
# OVCAR-5 ovarian = tested on: OVCAR-5 ovarian
# OVCAR-8 ovarian = tested on: OVCAR-8 ovarian
# PC-3 prostate = tested on: PC-3 prostate
# RPMI-8226 leukemia = tested on: RPMI-8226 leukemia
# RXF 393 renal = tested on: RXF 393 renal
# SF-268 CNS = tested on: SF-268 CNS
# SF-295 CNS = tested on: SF-295 CNS
# SF-539 CNS = tested on: SF-539 CNS
# SK-MEL-2 melanoma = tested on: SK-MEL-2 melanoma
# SK-MEL-28 melanoma = tested on: SK-MEL-28 melanoma
# SK-MEL-5 melanoma = tested on: SK-MEL-5 melanoma
# SK-OV-3 ovarian = tested on: SK-OV-3 ovarian
# SN12C renal = tested on: SN12C renal
# SNB-19 CNS = tested on: SNB-19 CNS
# SNB-75 CNS = tested on: SNB-75 CNS
# SR leukemia = tested on: SR leukemia
# SW-620 colon = tested on: SW-620 colon
# T-47D breast = tested on: T-47D breast
# TK-10 renal = tested on: TK-10 renal
# U251 glioblastoma = tested on: U251 glioblastoma
# UACC-257 melanoma = tested on: UACC-257 melanoma
# UACC-62 melanoma = tested on: UACC-62 melanoma
structure (smiles),measurement,setting,value
NC(=S)N/N=C/c1ncccc1N,GI50,786-0 renal,0.242 µM
same,TGI,786-0 renal,0.54 µM
same,GI50,A549 NSCLC,1.45 µM
same,TGI,A549 NSCLC,> 100 µM
same,GI50,ACHN renal,0.281 µM
same,TGI,ACHN renal,0.585 µM
same,GI50,BT-549 breast,0.675 µM
same,TGI,BT-549 breast,3.94 µM
same,GI50,CAKI-1 renal,0.494 µM
same,TGI,CAKI-1 renal,15.8 µM
same,GI50,CCRF-CEM leukemia,0.291 µM
same,TGI,CCRF-CEM leukemia,0.622 µM
same,GI50,COLO 205 colon,0.879 µM
same,TGI,COLO 205 colon,2.23 µM
same,GI50,DU-145 prostate,0.584 µM
same,TGI,DU-145 prostate,3.63 µM
same,GI50,EKVX NSCLC,3.28 µM
same,TGI,EKVX NSCLC,18.3 µM
same,GI50,HCT-15 colon,3.47 µM
same,TGI,HCT-15 colon,> 100 µM
same,GI50,HL-60(TB) leukemia,0.233 µM
same,TGI,HL-60(TB) leukemia,0.428 µM
same,GI50,HOP-62 NSCLC,0.357 µM
same,TGI,HOP-62 NSCLC,1.41 µM
same,GI50,HOP-92 NSCLC,0.47 µM
same,TGI,HOP-92 NSCLC,21.8 µM
same,GI50,HS 578T breast,0.654 µM
same,TGI,HS 578T breast,> 100 µM
same,GI50,HT29 colon,2.21 µM
same,TGI,HT29 colon,43.4 µM
same,GI50,IGROV1 ovarian,0.816 µM
same,TGI,IGROV1 ovarian,20.5 µM
same,GI50,KM12 colon,3.52 µM
same,TGI,KM12 colon,24.8 µM
same,GI50,M14 melanoma,0.586 µM
same,TGI,M14 melanoma,1.87 µM
same,GI50,MALME-3M melanoma,0.378 µM
same,TGI,MALME-3M melanoma,0.933 µM
same,GI50,MCF7 breast,0.487 µM
same,TGI,MCF7 breast,10.8 µM
same,GI50,MDA-MB-231 breast,0.616 µM
same,TGI,MDA-MB-231 breast,11.9 µM
same,GI50,MDA-MB-435 melanoma,7.8 µM
same,TGI,MDA-MB-435 melanoma,> 100 µM
same,GI50,MDA-MB-468 breast,1.41 µM
same,TGI,MDA-MB-468 breast,3.56 µM
same,GI50,MOLT-4 leukemia,0.194 µM
same,TGI,MOLT-4 leukemia,0.342 µM
same,GI50,NCI-H226 lung,1.7 µM
same,TGI,NCI-H226 lung,3.45 µM
same,GI50,NCI-H23 lung,0.257 µM
same,TGI,NCI-H23 lung,0.518 µM
same,GI50,NCI-H322M lung,7.28 µM
same,TGI,NCI-H322M lung,> 100 µM
same,GI50,NCI-H460 NSCLC,0.413 µM
same,TGI,NCI-H460 NSCLC,1.57 µM
same,GI50,NCI-H522 lung,0.561 µM
same,TGI,NCI-H522 lung,7.76 µM
same,GI50,NCI/ADR-RES ovarian,1.44 µM
same,TGI,NCI/ADR-RES ovarian,3.04 µM
same,GI50,OVCAR-3 ovarian,0.532 µM
same,TGI,OVCAR-3 ovarian,8.64 µM
same,GI50,OVCAR-4 ovarian,4.39 µM
same,TGI,OVCAR-4 ovarian,9.35 µM
same,GI50,OVCAR-5 ovarian,2.69 µM
same,TGI,OVCAR-5 ovarian,8.73 µM
same,GI50,OVCAR-8 ovarian,0.241 µM
same,TGI,OVCAR-8 ovarian,0.499 µM
same,GI50,PC-3 prostate,10.6 µM
same,TGI,PC-3 prostate,28.2 µM
same,GI50,RPMI-8226 leukemia,0.203 µM
same,TGI,RPMI-8226 leukemia,0.373 µM
same,GI50,RXF 393 renal,2.08 µM
same,TGI,RXF 393 renal,23.6 µM
same,GI50,SF-268 CNS,0.318 µM
same,TGI,SF-268 CNS,0.789 µM
same,GI50,SF-295 CNS,1.1 µM
same,TGI,SF-295 CNS,3.86 µM
same,GI50,SF-539 CNS,0.212 µM
same,TGI,SF-539 CNS,0.451 µM
same,GI50,SK-MEL-2 melanoma,0.45 µM
same,TGI,SK-MEL-2 melanoma,0.772 µM
same,GI50,SK-MEL-28 melanoma,2.67 µM
same,TGI,SK-MEL-28 melanoma,41.6 µM
same,GI50,SK-MEL-5 melanoma,0.53 µM
same,TGI,SK-MEL-5 melanoma,1.96 µM
same,GI50,SK-OV-3 ovarian,2.67 µM
same,TGI,SK-OV-3 ovarian,7.61 µM
same,GI50,SN12C renal,0.73 µM
same,TGI,SN12C renal,3.14 µM
same,GI50,SNB-19 CNS,0.709 µM
same,TGI,SNB-19 CNS,4.14 µM
same,GI50,SNB-75 CNS,0.344 µM
same,TGI,SNB-75 CNS,2.9 µM
same,GI50,SR leukemia,0.192 µM
same,TGI,SR leukemia,0.337 µM
same,GI50,SW-620 colon,0.697 µM
same,TGI,SW-620 colon,21.4 µM
same,GI50,T-47D breast,1.33 µM
same,TGI,T-47D breast,7.19 µM
same,GI50,TK-10 renal,8.17 µM
same,TGI,TK-10 renal,> 100 µM
same,GI50,U251 glioblastoma,0.314 µM
same,TGI,U251 glioblastoma,0.855 µM
same,GI50,UACC-257 melanoma,3.17 µM
same,TGI,UACC-257 melanoma,15 µM
same,GI50,UACC-62 melanoma,0.249 µM
same,TGI,UACC-62 melanoma,0.581 µM
